Measurements published in patent US11021481B2, “Substituted isoindolin-1-ones and 2,3-dihydro-1h-pyrrolo[3,4-c]pyridin-1-ones as HPK1 antagonists” (Nimbus Saturn, Inc., priority 2019, dated 2021).

Target: HPK1 (Homo sapiens (Human), UniProt Q92918)
Test: HPK1 biochemical enzyme assay (microfluidic mobility shift assay)
Details: 1.5 nM HPK1, ATP 1 mM final, 30 min preincubation, 60 min at RT, Caliper EZ Reader; read-out: HPK1 1000UMATP caliper IC50
In short: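 Mobility shift readout of HPK1 activity after a 60 min RT reaction with 1 mM ATP, 1 μM substrate and 5 mM MgCl2. Enzyme/substrate mix was first exposed to compounds for 30 min, using ten-point curves topping at 3 μM final.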

HPK1, sequence (Q92918 whole entry): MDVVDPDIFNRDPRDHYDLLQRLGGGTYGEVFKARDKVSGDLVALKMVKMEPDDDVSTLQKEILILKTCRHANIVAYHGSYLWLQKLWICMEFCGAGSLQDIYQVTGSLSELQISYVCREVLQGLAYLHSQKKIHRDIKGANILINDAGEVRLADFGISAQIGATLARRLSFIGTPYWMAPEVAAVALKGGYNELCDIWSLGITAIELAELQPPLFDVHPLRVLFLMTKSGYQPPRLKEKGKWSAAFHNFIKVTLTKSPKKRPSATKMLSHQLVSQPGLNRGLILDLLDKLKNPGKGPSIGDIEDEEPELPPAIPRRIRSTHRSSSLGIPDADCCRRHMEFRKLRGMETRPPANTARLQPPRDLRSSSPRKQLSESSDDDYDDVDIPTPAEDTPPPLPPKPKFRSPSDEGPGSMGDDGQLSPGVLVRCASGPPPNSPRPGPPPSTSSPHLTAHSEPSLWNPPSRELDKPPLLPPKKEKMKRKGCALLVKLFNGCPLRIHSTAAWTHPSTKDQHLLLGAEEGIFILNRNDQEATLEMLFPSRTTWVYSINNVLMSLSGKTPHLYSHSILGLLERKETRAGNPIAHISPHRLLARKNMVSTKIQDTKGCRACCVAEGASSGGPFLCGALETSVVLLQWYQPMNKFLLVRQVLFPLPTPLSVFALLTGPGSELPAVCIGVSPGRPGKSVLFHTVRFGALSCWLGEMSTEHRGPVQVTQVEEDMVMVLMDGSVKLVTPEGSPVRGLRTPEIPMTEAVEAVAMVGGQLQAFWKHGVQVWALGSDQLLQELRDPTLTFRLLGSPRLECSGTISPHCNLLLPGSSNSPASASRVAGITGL

Row | SMILES | IC50 [nM]
1 | CC(C)(O)[C@H]1COCCN(c2ccc(Nc3ccc(-c4cnc5cc(F)ccn45)c4c3C(=O)NC4)nc2)C1 [I-626, (R)-4-(7-fluoroimidazo [1,2-a]pyridin-3-yl)-7-((5-(6-(2-hydroxypropan-2-yl)-1,4-oxazepan-4-yl)pyridin-2-yl)amino)isoin-dolin-1-one] | < 100
2 | CN1CCN(c2ccc(Nc3ccc(-c4c(-c5ccccc5)[nH]c5ccccc45)c4c3C(=O)NC4)nc2)CC1 [I-40, 7-[[5-(4-methylpiperazin-1-yl)-2-pyridyl]amino]-4-(2-phenyl-1H-indol-3-yl)isoindolin-1-one] | < 100
3 | CN(C)CCc1nc(Nc2ccc(-c3cnc4cc(F)ccn34)c3c2C(=O)NC3)ccc1N1CCOCC1 [I-840, 7-((6-(2-(dimethylami-no)ethyl)-5-morpholinopyridin-2-yl)amino)-4-(7-fluoroimidazo [1,2-a]pyridin-3-yl)isoindolin-1-one] | < 100
4 | O=C1NCc2c(-c3cnc4cc(F)ccn34)ccc(Nc3ccc(N4CCC(CO)CC4)cn3)c21 [I-204, 4-(7-fluoroimidazo [1,2-a]pyridin-3-yl)-7-[[5-[4-(hydroxymeth-yl]-1-piperipyl]-2-pyripyl]-amino]isoin-dolin-1-one] | < 100
5 | CN1CCN(c2ccc(Nc3cnc(-c4ccnc5[nH]ccc45)c4c3C(=O)NC4)nc2)CC1 [I-20, 7-[[5-(4-methylpiperazin-1-yl)-2-pyridyl]amino]-4-(1H-pyrrolo[2,3-b]pyridin-4-yl)-2,3-dihydropyrrolo [3,4-c]pyridin-1-one] | < 100
6 | CN(C)C1CN(c2nc(Nc3ccc(-c4cnc5cc(F)ccn45)c4c3C(=O)NC4)ccc2C2CCOC2)C1 (stereo in doubt) [I-786, (S)-7-((6-(3-(dimctliylami-no)azetidin-1-yl)-5-(tetrahydrofur-an-3-yl)pyridin-2-yl)amino)-4-(7-fluoroimidazo [1,2-a]pyridin-3-yl)isoindolin-1-one] | < 100
7 | COC[C@@H]1CN(c2ccc(Nc3ccc(-c4cnc5c(F)c(C)ccn45)c4c3C(=O)NC4)nc2)CCO1 [I-579, (S)-4-(8-fluoro-7-methylimidazo [1,2-a]pyridin-3-yl)-7-((5-(2-(methoxymeth-yl)morpho-lino)pyridin-2-yl)amino)isoin-dolin-1-one] | < 100
8 | O=C1NCc2c(-c3cnc4cc(F)ccn34)ccc(Nc3ccc(N4CC[C@H](F)[C@H](O)C4)cn3)c21 [I-359, 7-((5-((3R,4S)-4-fluoro-3-hydroxy-piperidin-1-yl)pyridin-2-yl)amino)-4-(7-fluoroimidazo [1,2-a]pyridin-3-yl)isoindolin-1-one] | < 100
9 | CN1CCN(c2ccc(Nc3ccc(-c4cnn5cccnc45)c4c3C(=O)NC4)nc2)CC1 [I-112, 7-[[5-(4-methylpiperazin-1-yl)-2-pyridyl]amino]-4-pyrazolo[1,5-a]pyrimidin-3-yl-isoindolin-1-one] | < 100
10 | CN1CCN(c2ccc(Nc3cnc(-c4c[nH]c5cc(OCc6ccccc6)ccc45)c4c3C(=O)NC4)nc2)CC1 [I-260, 4-(6-(benzyloxy)-1H-indol-3-yl)-7-((5-(4-methylpiperazin-1-yl)pyridin-2-yl)amino)-2.3-dihydro-1H-pyrrolo[3,4-c]pyridin-1-one] | > 1000
11 | O=C1NCc2c(-c3cnc4cc(F)ccn34)ccc(Nc3ccc(CN4CCOCC4)cn3)c21 [I-238, 4-(7-fluoroimidazo [1,2-a]pyridin-3-yl)-7-[[5-(morpholino-methyl)-2-pyripyl]amino] isoindolin-1-one] | < 100
12 | O=C1NCc2c(-c3cnc4cc(F)ccn34)ccc(Nc3cccc(N4CC(O)C4)n3)c21 [I-323, 4-(7-fluoroimidazo [1,2-a]pyridin-3-yl)-7-((6-(3-hydroxyazeti-din-1-yl)pyridin-2-yl)amino)isoin-dolin-1-one] | > 1000
13 | CN(C)CCc1nc(Nc2cnc(-c3ccnc4c3ccn4C)c3c2C(=O)NC3)ccc1C1CCOC1 (stereo in doubt) [I-808, (S)-7-((6-(2-(dimothylami-no)ethyl)-5-(tetrahydrofuran-3-yl)pyridin-2-yl)amino)-4-(1-methyl-1H-pyrrolo[2,3-b]pyridin-4-yl)-2,3-dihydro-1H-pyrrolo[3,4-c]pyridin-1-one] | < 100
14 | CN1CCN(c2ccc(Nc3cnc(-c4c(-c5ccccc5)[nH]c5ccccc45)c4c3C(=O)NC4)nc2)CC1 [I-141, 7-((5-(4-Methylpiperazin-1-yl)pyridin-2-yl)amino)-4-(2-phenyl-1H-indol-3-yl)-2,3-dihydro-1H-pyrrolo[3,4-c]pyridin-1-one] | < 100
15 | CO[C@@H]1CC[C@@H](CO)N(c2ccc(Nc3ccc(-c4cnn5c4CCCC5)c4c3C(=O)NC4)nc2)C1 (stereo in doubt) [I-572, 7-((5-((2R,5R)-2-(hydroxymeth-yl)-5-methoxy-piperidin-1-yl)pyridin-2-yl)amino)-4-(4,5,6,7-tetralndropyra-zolo[1,5-a]pyridin-3-yl)isoindolin-1-one] | < 100
16 | CN(C)C(C)(C)C1CN(c2ccc(Nc3cnc(-c4ccnc5c4ccn5C)c4c3C(=O)NC4)nc2)CCO1 (centres unmarked) [I-668] | < 100

Row | SMILES | IC50 [nM]
17 | Cc1ccn2c(-c3ncc(Nc4ccc(N5CCC(O)CC5)cn4)c4c3CNC4=O)cnc2c1 [I-154, 7-[[5-(4-hydroxy-1-piperidyl)-2-pyridyl]amino]-4-(7-methylimidazo [1,2-a]pyridin-3-yl)-2,3-dihydropyrrolo [3,4-c]pyridin-1-one] | < 100
18 | CN[C@H]1CCN(c2cccc(Nc3cnc(-c4ccnc5c4ccn5C)c4c3C(=O)NC4)n2)C1 [I-245, 7-[[6-[(3S)-3-(methylamino)pyrrolidin-1-yl]-2-pyridyl]amino]-4-(1-methylpyrrolo [2,3-b]pyridin-4-yl)-2,3-dihydropyrrolo [3,4-c]pyridin-1-one] | < 100
19 | Cn1ccc2c(-c3ccc(Nc4ccc(N5CCCNCC5)cn4)c4c3CNC4=O)ccnc21 [I-79, 7-[[5-(1,4-diazepan-1-yl)-2-pyridyl]amino]-4-(1-methylpyrrolo [2,3-b]pyridin-4-yl)isoindolin-1-one] | < 100
20 | CN(C)C(C)(C)c1nc(Nc2ccc(-c3cnc4cc(F)ccn34)c3c2C(=O)NC3)ccc1[C@@H]1CCOC1 [I-833, (S)-7-((6-(2-(dimethylami-no)propan-2-yl)-5-(THF-3-yl)pyridin-2-yl)amino)-4-(7-fluoroimidazo [1,2-a]pyridin-3-yl)isoindolin-1-one] | 100 to 1000
21 | Cn1cc2c(-c3ccc(Nc4ccc(N5CCC(O)CC5)cn4)c4c3CNC4=O)cnc-2cn1 [I-422, 7-((5-(4-hydroxy-piperidin-1-yl)pyridin-2-yl)amino)-4-(5-methyl-5H-pyrrolo[2,3-d]pyridazin-3-yl)isoindolin-1-one] | 100 to 1000
22 | COC1(c2ccc(Nc3ccc(-c4cnc5cc(F)ccn45)c4c3C(=O)NC4)nc2CN(C)C)CC1 [I-823, 7-((6-((dimethylamino)methyl)-5-(1-methoxycyclopropyl)pyridin-2-yl)amino)-4-(7-fluoroimidazo[1,2-a]pyridin-3-yl)isoindolin-1-one] | < 100
23 | O=C1NCc2c(-c3cccn4nccc34)ncc(Nc3ccc(N4CCC(O)CC4)cn3)c21 [I-370, 7-((5-(4-hydroxy-piperidin-1-yl)pyridin-2-yl)amino)-4-(pyrazolo[1,5-a]pyridin-4-yl)-2,3-dihydro-1H-pyrrolo[3,4-c]pyridin-1-one] | 100 to 1000
24 | Cc1cc2c(-c3ccc(Nc4ccc(N5CCN(C)CC5)cn4)c4c3CNC4=O)ccnc2[nH]1 [I-38, 7-[[5-(4-methylpiperazin-1-yl)-2-pyridyl]amino]-4-(2-methyl-1H-pyrrolo[2,3-b]pyridin-4-yl)isoindolin-1-one] | < 100
25 | CC(C)(O)[C@@H]1CN(c2ccc(Nc3ccc(-c4cnc5cc(F)ccn45)c4c3C(=O)NC4)nc2)CCO1 [I-344] | < 100
26 | Cn1ccc2c(-c3ncc(Nc4ccc([C@@H]5CCOC5)c(CN)n4)c4c3CNC4=O)ccnc21 [I-836, (S)-7-((6-(aminomethyl)-5-(THF-3-yl)pyridin-2-yl)amino)-4-(1-methyl-1H-pyrrolo[2,3-b]pyridin-4-yl)-2,3-dihydro-1H-pyrrolo[3,4-c]pyridin-1-one] | < 100
27 | O=C1NCc2c(-c3cnc4cc(F)ccn34)ccc(Nc3ccc([C@H]4CCOC4)c(CN4CC[C@@H](O)C4)n3)c21 [I-783, 4-(7-f1uoroimidazo [1,2-a]pyridin-3-yl)-7-((6-(((R)-3-hydroxypyrrol-idin-1-yl)methyl)-5-((R)-tetrahydrofuran-3-yl)pyridin-2-yl)amino)isoin-dolin-1-one] | < 100
28 | Cn1ccc2c(-c3ncc(Nc4ccc5c(n4)CNCC5)c4c3CNC4=O)ccnc21 [I-413] | > 1000
29 | CN(C)Cc1nc(Nc2ccc(-c3cnc4cc(F)ccn34)c3c2C(=O)NC3)cnc1C1CCOC1 (stereo in doubt) [I-799, (S)-7-((6-((dimethylamino)-methyl)-5-(tetrahydrofu-ran-3-yl)pyrazin-2-yl)amino)-4-(7-fluoroimidazo [1,2-a]pyridin-3-yl)isoindolm-1-one] | < 100
30 | C[C@@H](O)[C@@H]1CN(c2ccc(Nc3ccc(-c4cnc5cc(F)ccn45)c4c3C(=O)NC4)nc2)CCO1 [I-635, 4-(7-fluoroimidazo[1,2-a]pyridin-3-yl)-7-((5-((S)-2-((R)-1-hydroxyethyl)morpholino)pyridin-2-yl)amino)isoindolin-1-one] | < 100
31 | Cn1ccc2c(-c3ncc(Nc4ccc(N5CCC(O)(CN6CCOCC6)CC5)cn4)c4c3CNC4=O)ccnc21 [I-343, 7-((5-(4-hydroxy-4-(morpholinomethyl)piperidin-1-yl)pyridin-2-yl)amino)-4-(1-methyl-1H-pyrrolo[2,3-b]pyridin-4-yl)-2,3-dihydro-1H-pyrrolo[3,4-c]pyridin-1-one] | < 100
32 | CN(C)C(C)(C)c1nc(Nc2ccc(-c3cnc4cc(F)ccn34)c3c2C(=O)NC3)ccc1[C@H]1CCOC1 [I-832, (R)-7-((6-(2-(dimethylami-no)propan-2-yl)-5-(THF-3-yl)pyridin-2-yl)amino)-4-(7-fluoroimidazo [1,2-a]pyridin-3-yl)isoindolin-1-one] | 100 to 1000
